Toxic doses and inconclusive results are not listed. Rule as the data show it: active = T/C of 150% or more; inactive = T/C below 125%.
Tested on: L1210 leukemia ip in BDF1 mice, survival T/C
Assay: NCI In Vivo Anticancer Drug Screen. Data for tumor model L1210 Leukemia (intraperitoneal) in B6D2F1 (BDF1) mice
Settings: endpoint: mean survival time, higher = longer survival
Procedure, shortened: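 Survival endpoint. Drug-treated group vs vehicle group, expressed as T divided by C. Tumor passaged by transplantation.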

[1] = dose: 100.0 mg/kg/injection, schedule: Q01DX001 (ip), vehicle: carboxymethylcellulose (CMC)
[2] = dose: 200.0 mg/kg/injection, schedule: Q01DX001 (ip), vehicle: carboxymethylcellulose (CMC)
[3] = dose: 400.0 mg/kg/injection, schedule: Q01DX001 (ip), vehicle: carboxymethylcellulose (CMC)
[4] = dose: 100.0 mg/kg/injection, schedule: Q04DX003 (ip), vehicle: saline with Tween-80
[5] = dose: 200.0 mg/kg/injection, schedule: Q04DX003 (ip), vehicle: saline with Tween-80
[6] = dose: 100.0 mg/kg/injection, schedule: Q04DX003 (ip), vehicle: Klucel (hydroxypropylcellulose) (HPC)
[7] = dose: 200.0 mg/kg/injection, schedule: Q04DX003 (ip), vehicle: Klucel (hydroxypropylcellulose) (HPC)
[8] = dose: 400.0 mg/kg/injection, schedule: Q04DX003 (ip), vehicle: Klucel (hydroxypropylcellulose) (HPC)
[9] = dose: 100.0 mg/kg/injection, schedule: Q01DX009 (ip), vehicle: Klucel (hydroxypropylcellulose) (HPC)
[10] = dose: 50.0 mg/kg/injection, schedule: Q01DX009 (ip), vehicle: saline
[11] = dose: 100.0 mg/kg/injection, schedule: Q01DX009 (ip), vehicle: saline
[12] = dose: 200.0 mg/kg/injection, schedule: Q01DX009 (ip), vehicle: saline
[13] = dose: 400.0 mg/kg/injection, schedule: Q01DX009 (ip), vehicle: saline
[14] = dose: 400.0 mg/kg/injection, schedule: Q04DX003 (ip), vehicle: saline with Tween-80
[15] = dose: 100.0 mg/kg/injection, schedule: Q01DX009 (ip), vehicle: saline with Tween-80
[16] = dose: 100.0 mg/kg/injection, schedule: Q04DX003 (ip), vehicle: saline
[17] = dose: 200.0 mg/kg/injection, schedule: Q01DX009 (ip), vehicle: saline with Tween-80
[18] = dose: 200.0 mg/kg/injection, schedule: Q04DX003 (ip), vehicle: saline
[19] = dose: 400.0 mg/kg/injection, schedule: Q01DX009 (ip), vehicle: saline with Tween-80
[20] = dose: 400.0 mg/kg/injection, schedule: Q04DX003 (ip), vehicle: saline

Measured: T/C

COc1ccc(Oc2ccc(-c3ccccc3)cc2)cc1
inactive: [1] 98 % of control | [2] 102 % of control | [3] 96 % of control

O=COC1CC2CC1C1CCCC21 (configuration not stated)
inactive: [4] 94 % of control | [5] 92 % of control

COc1ccccc1-n1c(O)c(N=Nc2ccccc2C)c(=O)n(-c2ccc(Cl)cc2)c1=S
inactive: dose: 100.0 mg/kg/injection, schedule: Q01DX001 (ip), vehicle: Klucel (hydroxypropylcellulose) (HPC) 95 % of control | dose: 200.0 mg/kg/injection, schedule: Q01DX001 (ip), vehicle: Klucel (hydroxypropylcellulose) (HPC) 96 % of control | dose: 400.0 mg/kg/injection, schedule: Q01DX001 (ip), vehicle: Klucel (hydroxypropylcellulose) (HPC) 98 % of control

CC(=O)OCC1CC2CC(O)C1C2 (configuration not stated)
inactive: dose: 75.0 mg/kg/injection, schedule: Q01DX001 (ip), vehicle: acetone 102 % of control

NC(CSCCc1ccc([N+](=O)[O-])cc1)C(=O)O (configuration not stated)
inactive: [6] 105 % of control | [7] 96 % of control | [8] 93 % of control

CC(=O)Nc1cc(Cl)cc2c1-c1c(Cl)cc(Cl)cc1C2
inactive: [9] 92 % of control | [6] 92 % of control | [7] 105 % of control | [8] 105 % of control

O=C(COc1ccccc1)Nc1ccc(Cl)cc1
inactive: [9] 89 % of control | dose: 200.0 mg/kg/injection, schedule: Q01DX009 (ip), vehicle: Klucel (hydroxypropylcellulose) (HPC) 95 % of control | dose: 400.0 mg/kg/injection, schedule: Q01DX009 (ip), vehicle: Klucel (hydroxypropylcellulose) (HPC) 90 % of control

COC(=O)C(CCl)NC(=O)c1ccccc1 (configuration not stated)
inactive: [10] 105 % of control | [11] 90 % of control | [6] 102 % of control | [12] 95 % of control | [7] 96 % of control

O=C1NC(=O)C2(N1)C1CC3CC(C1)CC2C3 (configuration not stated)
inactive: dose: 100.0 mg/kg/injection, schedule: Q01DX009 (ip), vehicle: alcohol 94 % of control | dose: 100.0 mg/kg/injection, schedule: Q04DX003 (ip), vehicle: alcohol 96 % of control | dose: 200.0 mg/kg/injection, schedule: Q01DX009 (ip), vehicle: alcohol 98 % of control | dose: 200.0 mg/kg/injection, schedule: Q04DX003 (ip), vehicle: alcohol 102 % of control | dose: 400.0 mg/kg/injection, schedule: Q01DX009 (ip), vehicle: alcohol 87 % of control | dose: 400.0 mg/kg/injection, schedule: Q04DX003 (ip), vehicle: alcohol 96 % of control

CN(C)C=Nc1cccc2cn[nH]c12
inactive: dose: 100.0 mg/kg/injection, schedule: Q04DX002 (ip), vehicle: saline with Tween-80 106 % of control | dose: 200.0 mg/kg/injection, schedule: Q04DX002 (ip), vehicle: saline with Tween-80 106 % of control | dose: 400.0 mg/kg/injection, schedule: Q04DX002 (ip), vehicle: saline with Tween-80 98 % of control

O=C(O)c1nc[nH]c1C(=O)O
inactive: [11] 102 % of control | [6] 93 % of control | [12] 104 % of control | [7] 96 % of control | [13] 94 % of control | [8] 88 % of control

OCC1OC(n2ncc3c(Cl)ccnc32)C(O)C1O (configuration not stated)
inactive: dose: 50.0 mg/kg/injection, schedule: Q01DX005 (ip), vehicle: other 91 % of control

CCOC(=O)CCCC(=O)N(CC(=O)OCC)Cc1ccccc1
inactive: [4] 102 % of control | [5] 93 % of control | [14] 90 % of control

CCCCCCCCCCCCCCCCc1ccc(CCCC(=O)O)cc1
inactive: [6] 91 % of control | [7] 92 % of control | [8] 91 % of control

NC(N)=N/N=C\c1ccc(C2CCNCC2)cc1
inactive: dose: 15.0 mg/kg/injection, schedule: Q01DX Z (ip), vehicle: methylcellulose (MC) 107 % of control | dose: 15.0 mg/kg/injection, schedule: Q01DX Z (oral), vehicle: methylcellulose (MC) 110 % of control | dose: 30.0 mg/kg/injection, schedule: Q01DX Z (ip), vehicle: methylcellulose (MC) 108 % of control | dose: 30.0 mg/kg/injection, schedule: Q01DX Z (oral), vehicle: methylcellulose (MC) 100 % of control | dose: 60.0 mg/kg/injection, schedule: Q01DX Z (oral), vehicle: methylcellulose (MC) 104 % of control

Oc1ccc(CNc2nn[nH]n2)cc1
inactive: [4] 94 % of control | [5] 96 % of control | [14] 96 % of control

N#C/C(=C\c1cc(Cl)cc(Cl)c1O)C(/C(C#N)=C/c1cc(Cl)cc(Cl)c1O)c1ccc2c(c1)OCO2 (configuration not stated)
inactive: [15] 97 % of control | [16] 98 % of control | [17] 94 % of control | [5] 103 % of control | [18] 100 % of control | [19] 89 % of control | [20] 98 % of control

COC(=O)C1C2CCC(C2)C1C (configuration not stated)
inactive: dose: 25.0 mg/kg/injection, schedule: Q04DX003 (ip), vehicle: saline with Tween-80 101 % of control | dose: 50.0 mg/kg/injection, schedule: Q04DX003 (ip), vehicle: saline with Tween-80 97 % of control | [4] 94 % of control

CSC(N)=Nc1ccc(C(=O)O)cc1
inactive: [15] 105 % of control | [17] 112 % of control | [19] 97 % of control

CC(=O)c1ccccc1OCC(O)CN1CCN(c2ccccc2Cl)CC1 (configuration not stated)
inactive: dose: 37.5 mg/kg/injection, schedule: Q01DX009 (ip), vehicle: saline with Tween-80 97 % of control | dose: 37.5 mg/kg/injection, schedule: Q04DX003 (ip), vehicle: saline with Tween-80 105 % of control | dose: 75.0 mg/kg/injection, schedule: Q01DX009 (ip), vehicle: saline with Tween-80 89 % of control | dose: 75.0 mg/kg/injection, schedule: Q04DX003 (ip), vehicle: saline with Tween-80 108 % of control | dose: 150.0 mg/kg/injection, schedule: Q01DX009 (ip), vehicle: saline with Tween-80 93 % of control | dose: 150.0 mg/kg/injection, schedule: Q04DX003 (ip), vehicle: saline with Tween-80 94 % of control

CC(CO)(CO)N=Cc1cc(Br)ccc1O
inactive: [1] 102 % of control | [2] 100 % of control | [3] 86 % of control

c1ccc(Nc2nc(Nc3ccccc3)nc(Nc3ccccc3)n2)cc1
inactive: dose: 25.0 mg/kg/injection, schedule: Q04DX002 (ip), vehicle: Klucel (hydroxypropylcellulose) (HPC) 92 % of control | dose: 50.0 mg/kg/injection, schedule: Q04DX002 (ip), vehicle: Klucel (hydroxypropylcellulose) (HPC) 92 % of control | dose: 100.0 mg/kg/injection, schedule: Q04DX002 (ip), vehicle: Klucel (hydroxypropylcellulose) (HPC) 88 % of control

CN1C(=O)OC(C)(C)C1=O
inactive: dose: 25.0 mg/kg/injection, schedule: Q01DX009 (ip), vehicle: saline 98 % of control | dose: 25.0 mg/kg/injection, schedule: Q04DX003 (ip), vehicle: saline 93 % of control | [10] 95 % of control | dose: 50.0 mg/kg/injection, schedule: Q04DX003 (ip), vehicle: saline 109 % of control | [11] 102 % of control | [16] 98 % of control | [12] 96 % of control | [18] 109 % of control | [13] 106 % of control | [20] 98 % of control

Cc1ccc(S(=O)(=O)N2CC(=O)N(S(=O)(=O)c3ccc(C)cc3)CC2=O)cc1
inactive: dose: 100.0 mg/kg/injection, schedule: Q01DX001 (ip), vehicle: other 106 % of control | dose: 200.0 mg/kg/injection, schedule: Q01DX001 (ip), vehicle: other 103 % of control | dose: 400.0 mg/kg/injection, schedule: Q01DX001 (ip), vehicle: other 106 % of control

[N-]=[N+]=NCCCCCCCCCCN=[N+]=[N-]
inactive: dose: 75.0 mg/kg/injection, schedule: Q04DX003 (ip), vehicle: saline 102 % of control | dose: 150.0 mg/kg/injection, schedule: Q04DX003 (ip), vehicle: saline 101 % of control | dose: 300.0 mg/kg/injection, schedule: Q04DX003 (ip), vehicle: saline 91 % of control

N#Cc1ccc(P(=O)(O)O)cc1
inactive: dose: 75.0 mg/kg/injection, schedule: Q01DX001 (ip), vehicle: saline 102 % of control | dose: 150.0 mg/kg/injection, schedule: Q01DX001 (ip), vehicle: saline 94 % of control

From PubChem BioAssay AID248 (DTP/NCI, 2004)
